Measured values taken from patent US9187455B2, “Substituted pyridazines as PDE10A inhibitors” (Hoffmann-La Roche Inc., priority 2009, dated 2015).

Key:
rats = settings: sub-chronic treatment with PCP, Rodefer et al. 2005; cited from earlier work
PDE10A2 = biological target: T1, PDE10A2 (Homo sapiens, UniProt Q9Y233); assay: PDE10A2 Scintillation Proximity Assay (SPA), [3H]-cGMP hydrolysis; format: biochemical; settings: catalytic domain of human PDE10A2 (S449-D789), 0.25 nM enzyme, 50 nM cGMP + 50 nM [3H]-cGMP, 30 minutes at room temperature; read-out: PDE10A2 inhibition IC50
T1 construct: residues serine 449 to aspartate 789; His6 (H6) with Gateway linker and thrombin cleavage site (N, cleaved yes); made in house; host or cells: E. coli BL21(DE3) pLysS
Summary of the method: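 Recombinant human PDE10A2 catalytic domain (S449–D789, E. coli-expressed), 0.25 nM, with 50 nM cGMP plus 50 nM [3H]-cGMP in 20 mM HEPES/10 mM MgCl2, pH 7.5, 30 min at room temperature. Stopped with YSi-SPA beads in zinc sulphate; counts over a compound concentration range gave IC50.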

T1 sequence (Q9Y233 715-1055): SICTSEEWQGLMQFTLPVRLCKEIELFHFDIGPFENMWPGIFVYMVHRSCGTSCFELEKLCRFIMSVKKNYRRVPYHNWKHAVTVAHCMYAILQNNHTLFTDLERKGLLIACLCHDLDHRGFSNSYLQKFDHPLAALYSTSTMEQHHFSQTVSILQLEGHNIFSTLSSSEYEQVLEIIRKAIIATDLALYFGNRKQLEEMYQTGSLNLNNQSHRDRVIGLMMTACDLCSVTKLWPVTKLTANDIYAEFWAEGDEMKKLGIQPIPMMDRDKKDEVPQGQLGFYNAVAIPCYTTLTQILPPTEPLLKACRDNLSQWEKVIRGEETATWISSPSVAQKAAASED

For `COc1ccc(Cc2nccc3cc(OC)c(OC)cc23)cc1OC` [papaverine, Papaverine], which “effect on deficits in extra-dimensional shift learning” value (rats) is on record?
Its value is “attenuate the deficits in the extra-dimensional shift learning”.

Which IC50 (PDE10A2) does the source give for `O=c1ccn(-c2cccnc2)nc1-c1ccnn1-c1ccccn1` [Example 33, 1-Pyridin-3-yl-3-(2-pyridin-2-yl-2H-pyrazol-3-yl)-1H-pyridazin-4-one] here?
The IC50 was 2.94 µM.

With `O=c1ccn(-c2ccnc(Cl)c2)nc1-c1ccnn1-c1cccc2ccccc12` [Example 13, 1-(2-Chloro-pyridin-4-yl)-3-(2-naphthalen-1-yl-2H-pyrazol-3-yl)-1H-pyridazin-4-one] as the compound, how does the IC50 (PDE10A2) read?
Its IC50 is 0.011 µM.

Which IC50 (PDE10A2) does the source give for `O=c1ccn(-c2ccncc2)nc1-c1ccnn1-c1ccc(Cl)cc1` [Example 6, 3-[2-(4-Chloro-phenyl)-2H-pyrazol-3-yl]-1-pyridin-4-yl-1H-pyridazin-4-one] here?
The IC50 was 0.188 µM.

For `O=c1ccn(-c2cncc3ccccc23)nc1-c1ccnn1-c1cccc(Cl)c1` [Example 66, 3-[2-(3-Chloro-phenyl)-2H-pyrazol-3-yl]-1-isoquinolin-4-yl-1H-pyridazin-4-one], which IC50 (PDE10A2) is on record?
The IC50 was 0.1 µM.

Which IC50 (PDE10A2) does the source give for `O=c1ccn(-c2cccnc2)nc1-c1ccnn1-c1cccc2cnccc12` [Example 86, 3-(2-Isoquinolin-5-yl-2H-pyrazol-3-yl)-1-pyridin-3-yl-1H-pyridazin-4-one] here?
Its IC50 is 0.05 µM.

Which IC50 (PDE10A2) does the source give for `O=c1ccn(-c2cncc(C(F)(F)F)c2)nc1-c1ccnn1-c1ccccc1F` [Example 68, 3-[2-(2-Fluoro-phenyl)-2H-pyrazol-3-yl]-1-(5-trifluoromethyl-pyridin-3-yl)-1H-pyridazin-4-one] here?
Its IC50 is 0.178 µM.

Which IC50 (PDE10A2) does the source give for `Cc1cc(-n2ccc(=O)c(-c3ccnn3-c3ccnc4ccccc34)n2)ccn1` [Example 79, 1-(2-Methyl-pyridin-4-yl)-3-(2-quinolin-4-yl-2H-pyrazol-3-yl)-1H-pyridazin-4-one] here?
Its IC50 is 0.012 µM.

For `O=c1ccn(-c2cncc3ccccc23)nc1-c1ccnn1-c1ccccc1F` [Example 65, 3-[2-(2-Fluoro-phenyl)-2H-pyrazol-3-yl]-1-isoquinolin-4-yl-1H-pyridazin-4-one], which IC50 (PDE10A2) is on record?
Its IC50 is 0.144 µM.

For `O=c1ccn(-c2ccnc(Cl)c2)nc1-c1ccnn1-c1ccccc1F` [Example 63, 1-(2-Chloro-pyridin-4-yl)-3-[2-(2-fluoro-phenyl)-2H-pyrazol-3-yl]-1H-pyridazin-4-one], which IC50 (PDE10A2) is on record?
The IC50 was 0.078 µM.

With `O=c1ccn(-c2ccncc2)nc1-c1ccnn1-c1ccnc(Cl)c1` [Example 23, 3-[2-(2-Chloro-pyridin-4-yl)-2H-pyrazol-3-yl]-1-pyridin-4-yl-1H-pyridazin-4-one] as the compound, how does the IC50 (PDE10A2) read?
Its IC50 is 1.21 µM.

With `O=c1ccn(-c2cccnc2)nc1-c1ccnn1-c1cc(F)ccc1F` [Example 47, 3-[2-(2,5-Difluoro-phenyl)-2H-pyrazol-3-yl]-1-pyridin-3-yl-1H-pyridazin-4-one] as the compound, how does the IC50 (PDE10A2) read?
Its IC50 is 0.352 µM.

Which IC50 (PDE10A2) does the source give for `O=c1ccn(-c2cncc(Cl)c2)nc1-c1ccnn1-c1ccnc2ccccc12` [Example 51, 1-(5-Chloro-pyridin-3-yl)-3-(2-quinolin-4-yl-2H-pyrazol-3-yl)-1H-pyridazin-4-one] here?
Its IC50 is 0.02 µM.

For `O=c1ccn(-c2ccc3ncccc3c2)nc1-c1ccnn1-c1cccc(Cl)c1` [Example 103, 3-[2-(3-Chloro-phenyl)-2H-pyrazol-3-yl]-1-quinolin-6-yl-1H-pyridazin-4-one], which IC50 (PDE10A2) is on record?
The IC50 was 0.007 µM.

Which IC50 (PDE10A2) does the source give for `Cc1cc(-n2ccc(=O)c(-c3ccnn3-c3cccc(F)c3)n2)ccn1` [Example 39, 3-[2-(3-Fluoro-phenyl)-2H-pyrazol-3-yl]-1-(2-methyl-pyridin-4-yl)-1H-pyridazin-4-one] here?
The IC50 was 2.56 µM.

With `O=c1ccn(-c2ccnc(N3CCOCC3)c2)nc1-c1ccnn1-c1ccc2c(c1)OCCO2` [Example 41, 3-[2-(2,3-Dihydro-benzo[1,4]dioxin-6-yl)-2H-pyrazol-3-yl]-1-(2-morpholin-4-yl-pyridin-4-yl)-1H-pyridazin-4-one] as the compound, how does the IC50 (PDE10A2) read?
Its IC50 is 0.082 µM.

For `O=c1ccn(-c2ccncc2)nc1-c1ccnn1-c1ccc2c(c1)OCCO2` [Example 15, 3-[2-(2,3-Dihydro-benzo[1,4]dioxin-6-yl)-2H-pyrazol-3-yl]-1-pyridin-4-yl-1H-pyridazin-4-one], which IC50 (PDE10A2) is on record?
The IC50 was 0.08 µM.

For `O=c1ccn(-c2cnc3ccccc3c2)nc1-c1ccnn1-c1ccccc1F` [Example 78, 3-[2-(2-Fluoro-phenyl)-2H-pyrazol-3-yl]-1-quinolin-3-yl-1H-pyridazin-4-one], which IC50 (PDE10A2) is on record?
Its IC50 is 0.038 µM.
